Assays:
Sphaerotheca fuliginea = test: Test Example 4: preventive efficacy against Sphaerotheca fuliginea on cucumber (comparison with Reference Compound A); assay type: in vivo; conditions: 500 ppm flowable, foliar spray on cucumber leaves, inoculated after spraying, 23° C., 12 days
Method: The control effect of the present compound was evaluated by visually observing the area of a lesion on a plant under test in investigation and comparing the area of a lesion in a non-treatment group and the area of a lesion in a group treated with the present compound. Sand loam was compacted in plastic pots, cucumbers (Ochiai Aonagafushinari) were seeded and grown in a greenhouse for 12 days. Then, each of Reference Compound A and Compound 182 was formulated into flowable formulations according to Formulation Example 6, then, diluted with water to provide prescribed concentration (500 ppm), and sprayed over the foliage so as to give sufficient adhesion on the surface of cucumber leaves. After spraying, the plants were air-dried, and inoculated with spores of Sphaerotheca fuliginea. After the inoculation, the cucumbers were placed at 23° C. for 12 days, and the control effect was examined. As a result, areas of lesions on the plant treated with Reference Compound A were in the range of 75% to 100% on those of the untreated groups, on the other hand, areas of lesions on the plant treated with Compound 182 was not greater than 1% of infested areas on those of the untreated groups.

Botrytis cinerea = test: Test Example 3: preventive efficacy against Botrytis cinerea on cucumber (comparison with Reference Compound A); assay type: in vivo; conditions: 500 ppm flowable, foliar spray on cucumber cotyledons, inoculated after spraying, 12° C. humid, 4 days
Method: The control effect of the present compound was evaluated by visually observing the area of a lesion on a plant under test in investigation and comparing the area of a lesion in a non-treatment group and the area of a lesion in a group treated with the present compound. Sand loam was compacted in plastic pots, cucumbers (Ochiai Aonagafushinari) were seeded and grown in a greenhouse for 10 days. Then, each of Reference Compound A and Compound 182 was formulated into a flowable formulation according to Formulation Example 6, then, diluted with water to provide prescribed concentration (500 ppm), and sprayed over the foliage so as to give sufficient adhesion on the surface of cucumber cotyledons. After spraying, the plants were air-dried, and PDA medium containing spores of Botrytis cinerea were attached on cucumber cotyledons. After the inoculation, the cucumbers were placed in a humid condition at 12° C. for 4 days, and the control effect was examined. As a result, areas of lesions on the plant treated with Reference Compound A were in the range of 75% to 100% on those of the untreated groups, on the other hand, areas of lesions on the plant treated with Compound 182 was not greater than 1% of areas of lesions on those of the untreated groups.

Row | Structure (SMILES) | melting point [°C] | areas of lesions on treated plant as % of infested areas on untreated groups (Sphaerotheca fuliginea) [%] | areas of lesions on treated plant as % of areas of lesions on untreated groups (Botrytis cinerea) [%]
1 | CC1CCN(c2c(-c3c(F)cc(F)cc3F)c(Cl)nc3nccn23)CC1 [Compound 55, 5-(4-methylpiperidin-1-yl)-6-(2,4,6-trifluorophenyl)-7-chloroimidazo[1,2-a]pyrimidine] | 200.8 | – | –
2 | Cc1cc(C)n(-c2c(-c3c(F)cc(F)cc3F)c(Cl)nc3nccn23)n1 [Compound 89, 5-(3,5-dimethylpyrazol-1-yl)-6-(2,4,6-trifluorophenyl)-7-chloroimidazo[1,2-a]pyrimidine] | 150.4 | – | –
3 | Cc1nc2nccn2c(N2CCC(C)CC2)c1-c1c(F)cccc1Cl [Compound 428, 5-(4-methylpiperidin-1-yl)-6-(2-chloro-6-fluorophenyl)-7-methylimidazo[1,2-a]pyrimidine] | 144.5 | – | –

The next lines start with results.

Row | melting point [°C] | Structure (SMILES) | areas of lesions on treated plant as % of infested areas on untreated groups (Sphaerotheca fuliginea) [%] | areas of lesions on treated plant as % of areas of lesions on untreated groups (Botrytis cinerea) [%]
4 | 95.4 | CCCN(CCC)c1c(-c2c(F)cc(F)cc2F)c(Cl)nc2nccn12 [Compound 8, 5-(di-n-propylamino)-6-(2,4,6-trifluorophenyl)-7-chloroimidazo[1,2-a]pyrimidine] | – | –
5 | 183.8 | CC1CCN(c2c(-c3c(F)cccc3Cl)c(Cl)nc3nccn23)CC1 [Compound 182, 5-(4-methylpiperidin-1-yl)-6-(2-chloro-6-fluorophenyl)-7-chloroimidazo[1,2-a]pyrimidine] | ≤ 1 | ≤ 1

Source: patent US7211545B2, “Imidazo[1,2-a]pyrimidine and fungicidal compositions containing thereof” (Sumitomo Chemical Company, Limited, priority 2001, dated 2007)
